The MIC is the smallest concentration in the dilution series that meets the test's criterion for growth inhibition. Usually MBC stands for the smallest concentration meeting the test's criterion for killing.

The results in this text go back to ChEMBL document CHEMBL5257124, “Design, synthesis and biological evaluation of novel indole-piperazine derivatives as antibacterial agents” (Bioorg Med Chem Lett, 2023).

≈ marks a conversion by molar mass, not a printed value. Calls of active or inactive are those of the source. Where only a bound is given, the exact number is not on record here.

For data set [1], the system named is Staphylococcus aureus. As to the kind of experiment: Antibacterial activity against methicillin resistant Staphylococcus aureus ATCC 33591 assessed as reduction in bacterial growth. It is filed as functional.
In data set [2] the test system is Staphylococcus aureus. As to the kind of experiment: Antibacterial activity against Staphylococcus aureus ATCC 25923 assessed as reduction in bacterial growth. Type of data set: functional.
Data set [3] relates to Bacillus cereus. As to the kind of experiment: Antibacterial activity against Bacillus cereus assessed as reduction in bacterial growth. Type of data set: functional.
Data set [4] has as its system Escherichia coli. As to the kind of experiment: Antibacterial activity against Escherichia coli ATCC 25922 assessed as reduction in bacterial growth. It is filed as functional.
Data set [5] deals with Pseudomonas syringae. As to the kind of experiment: Antibacterial activity against Pseudomonas syringae pv. actinidiae assessed as bacterial growth inhibition. It is filed as functional.
The test system of data set [6] is Ralstonia solanacearum. As to the kind of experiment: Antibacterial activity against Ralstonia solanacearum assessed as bacterial growth inhibition. Type of data set: functional.
The subject of data set [7] is Staphylococcus aureus. As to the kind of experiment: Bactericidal activity against methicillin resistant Staphylococcus aureus ATCC 33591 assessed as reduction in bacterial growth. Type of data set: functional.
Data set [8] relates to Staphylococcus aureus. In words: Bactericidal activity against Staphylococcus aureus ATCC 25923 assessed as reduction in bacterial growth. Type of data set: functional.
Data set [9] relates to Escherichia coli. In words: Bactericidal activity against Escherichia coli ATCC 25922 assessed as reduction in bacterial growth. It is filed as functional.
The subject of data set [10] is Staphylococcus aureus. In words: Antibacterial activity against methicillin resistant Staphylococcus aureus assessed as reduction in bacterial growth at 8 times MIC measured at 24 hrs by time kill assay. It is filed as functional, organism-based.
Data set [11] deals with Staphylococcus aureus. As to the kind of experiment: Antibacterial activity against methicillin resistant Staphylococcus aureus assessed as reduction in bacterial growth at 8 microg/ml measured for 2 hrs. Type of data set: functional. To be noted: dose 8 µg/ml.
The subject of data set [12] is Staphylococcus aureus. As to the kind of experiment: Antibacterial activity against methicillin resistant Staphylococcus aureus assessed as reduction in bacterial growth at 16 microg/ml measured for 2 hrs. It is filed as functional. The following applies: dose 16 µg/ml.
Data set [13] relates to BV-2. In words: Cytotoxicity against mouse BV-2 cells assessed as inhibition of cell growth at 20 to 50 microg/ml measured for 24 hrs by MTT assay. It is filed as toxicity, cell-based. The following applies: bv-2, 24 h, dose 20-50 µg/ml. For orientation: Formazan colour is commonly taken as a measure of viable cells.
The test system of data set [14] is PC-12. As to the kind of experiment: Cytotoxicity against rat PC12 cells assessed as inhibition of cell growth at 20 to 50 microg/ml measured for 24 hrs by MTT assay. Type of data set: toxicity, cell-based. To be noted: pc-12, 24 h, dose 20-50 µg/ml.

Consider `Cn1cc(CN2CCN(Cc3ccc(Cl)cc3Cl)CC2)c2cc(Br)ccc21`, for which the MIC in [1] was 4 µg/mL (≈ 8.56 µM); in data set [2], 8 µg/mL (≈ 17.1 µM); in [3] it was 8 µg/mL (≈ 17.1 µM); in data set [4] it was 16 µg/mL (≈ 34.2 µM); in data set [5] it was 16 µg/mL (≈ 34.2 µM); in data set [6], 32 µg/mL (≈ 68.5 µM). Besides, the values for the MBC in [7], in data set [8] and in data set [9] were 8 µg/mL (≈ 17.1 µM), 16 µg/mL (≈ 34.2 µM) and 16 µg/mL (≈ 34.2 µM), respectively.
On to `Cn1cc(CN2CCN(Cc3ccc(Cl)cc3Cl)CC2)c2cc(C#N)ccc21`, for which the minimum inhibitory concentration (MIC) in data set [1] was 8 µg/mL (≈ 19.4 µM); in [2] it was 8 µg/mL (≈ 19.4 µM); in data set [3], 8 µg/mL (≈ 19.4 µM); in [4] it was 32 µg/mL (≈ 77.4 µM); in [5], 32 µg/mL (≈ 77.4 µM); in [6] it was 16 µg/mL (≈ 38.7 µM).
Turning to `FC(F)(F)c1ccc(CN2CCN(Cc3c[nH]c4ccc(Br)cc34)CC2)c(N2CCCC2)c1`, the minimum inhibitory concentration (MIC) is 8 µg/mL (≈ 15.3 µM) in data set [1]; 8 µg/mL (≈ 15.3 µM) in [2]; 8 µg/mL (≈ 15.3 µM) in data set [3]; 32 µg/mL (≈ 61.4 µM) in data set [4]; 32 µg/mL (≈ 61.4 µM) in data set [5]; 32 µg/mL (≈ 61.4 µM) in data set [6]. For the same compound, the MBC is 16 µg/mL (≈ 30.7 µM) in data set [7], 16 µg/mL (≈ 30.7 µM) in data set [8] and 32 µg/mL (≈ 61.4 µM) in data set [9].
`Cn1cc(CN2CCN(Cc3ccc(C(F)(F)F)cc3N3CCCC3)CC2)c2cc(Cl)ccc21`: the MIC in data set [1] was found to be 64 µg/mL (≈ 130 µM); in [2] it was 32 µg/mL (≈ 65.2 µM); in [3] it was 32 µg/mL (≈ 65.2 µM); in data set [4], 64 µg/mL (≈ 130 µM); in [5], 64 µg/mL (≈ 130 µM); in [6], 64 µg/mL (≈ 130 µM).
Take `O=[N+]([O-])c1ccc2[nH]cc(CN3CCN(Cc4ccc(Cl)cc4Cl)CC3)c2c1`: the MIC in data set [1] stood at 8 µg/mL (≈ 19.1 µM); in data set [2], 8 µg/mL (≈ 19.1 µM); in [3] it was 8 µg/mL (≈ 19.1 µM); in [4], 32 µg/mL (≈ 76.3 µM); in data set [5], 32 µg/mL (≈ 76.3 µM); in data set [6], 32 µg/mL (≈ 76.3 µM).
In the case of `COc1ccc2[nH]cc(CN3CCN(Cc4ccc(C(F)(F)F)cc4N4CCCC4)CC3)c2c1`, the MIC was found to be 8 µg/mL (≈ 16.9 µM) in data set [1]; 16 µg/mL (≈ 33.9 µM) in data set [2]; 16 µg/mL (≈ 33.9 µM) in data set [3]; 32 µg/mL (≈ 67.7 µM) in data set [4]; 16 µg/mL (≈ 33.9 µM) in data set [5]; 16 µg/mL (≈ 33.9 µM) in data set [6].
Regarding GENTAMICIN, the MIC was over 128 µg/mL in [1]; 4 µg/mL in [2]; 8 µg/mL in data set [3]; 4 µg/mL in data set [4]; 8 µg/mL in data set [5]; 16 µg/mL in data set [6]. For the same compound, the MBC in data set [7] was over 128 µg/mL; in data set [8] it was 8 µg/mL; in data set [9], 4 µg/mL.
As for `Cn1cc(CN2CCN(Cc3ccc(C(F)(F)F)cc3N3CCCC3)CC2)c2cc(F)ccc21`, the MIC in data set [1] was 8 µg/mL (≈ 16.9 µM); in data set [2], 8 µg/mL (≈ 16.9 µM); in data set [3] it was 8 µg/mL (≈ 16.9 µM); in data set [4], 32 µg/mL (≈ 67.4 µM); in data set [5], 32 µg/mL (≈ 67.4 µM); in [6], 32 µg/mL (≈ 67.4 µM).
Regarding `Cn1cc(CN2CCN(Cc3ccc(C(F)(F)F)cc3N3CCCC3)CC2)c2cc(C#N)ccc21`, the MIC in data set [1] stood at 16 µg/mL (≈ 33.2 µM); in data set [2], 16 µg/mL (≈ 33.2 µM); in [3], 16 µg/mL (≈ 33.2 µM); in [4], 32 µg/mL (≈ 66.4 µM); in data set [5] it was 32 µg/mL (≈ 66.4 µM); in [6], 32 µg/mL (≈ 66.4 µM).
As to `N#Cc1ccc2[nH]cc(CN3CCN(Cc4ccc(Cl)cc4Cl)CC3)c2c1`, the minimal inhibitory concentration (MIC) in [1] is 8 µg/mL (≈ 20 µM); in data set [2], 16 µg/mL (≈ 40.1 µM); in [3] it was 8 µg/mL (≈ 20 µM); in data set [4], 32 µg/mL (≈ 80.1 µM); in data set [5], 32 µg/mL (≈ 80.1 µM); in data set [6] it was 32 µg/mL (≈ 80.1 µM).
Take `O=[N+]([O-])c1ccc2[nH]cc(CN3CCN(Cc4ccc(C(F)(F)F)cc4N4CCCC4)CC3)c2c1`: the MIC in data set [1] is 16 µg/mL (≈ 32.8 µM); in data set [2], 16 µg/mL (≈ 32.8 µM); in data set [3], 16 µg/mL (≈ 32.8 µM); in data set [4] it was 32 µg/mL (≈ 65.6 µM); in [5] it was 32 µg/mL (≈ 65.6 µM); in data set [6] it was 32 µg/mL (≈ 65.6 µM).
Regarding `N#Cc1ccc2[nH]cc(CN3CCN(Cc4ccc(C(F)(F)F)cc4N4CCCC4)CC3)c2c1`, the MIC worked out at 16 µg/mL (≈ 34.2 µM) in [1]; 16 µg/mL (≈ 34.2 µM) in data set [2]; 16 µg/mL (≈ 34.2 µM) in [3]; 128 µg/mL (≈ 274 µM) in [4]; 128 µg/mL (≈ 274 µM) in data set [5]; 128 µg/mL (≈ 274 µM) in data set [6].
With `Cn1cc(CN2CCN(Cc3ccc(C(F)(F)F)cc3N3CCCC3)CC2)c2cc(Br)ccc21`, the MIC worked out at 8 µg/mL (≈ 14.9 µM) in data set [1]; 16 µg/mL (≈ 29.9 µM) in data set [2]; 16 µg/mL (≈ 29.9 µM) in [3]; 32 µg/mL (≈ 59.8 µM) in data set [4]; 16 µg/mL (≈ 29.9 µM) in [5]; 16 µg/mL (≈ 29.9 µM) in data set [6].
As to `Fc1ccc2[nH]cc(CN3CCN(Cc4ccc(Cl)cc4Cl)CC3)c2c1`, the minimum inhibitory concentration (MIC) was 8 µg/mL (≈ 20.4 µM) in data set [1]; 8 µg/mL (≈ 20.4 µM) in data set [2]; 8 µg/mL (≈ 20.4 µM) in data set [3]; 32 µg/mL (≈ 81.6 µM) in data set [4]; 32 µg/mL (≈ 81.6 µM) in data set [5]; 32 µg/mL (≈ 81.6 µM) in data set [6].
For `Clc1ccc(CN2CCN(Cc3c[nH]c4ccc(Cl)cc34)CC2)c(Cl)c1`, the MIC worked out at 8 µg/mL (≈ 19.6 µM) in [1]; 8 µg/mL (≈ 19.6 µM) in data set [2]; 8 µg/mL (≈ 19.6 µM) in [3]; 16 µg/mL (≈ 39.1 µM) in data set [4]; 32 µg/mL (≈ 78.3 µM) in data set [5]; 16 µg/mL (≈ 39.1 µM) in data set [6].
Take `Fc1ccc2[nH]cc(CN3CCN(Cc4ccc(C(F)(F)F)cc4N4CCCC4)CC3)c2c1`: the MIC in data set [1] was 8 µg/mL (≈ 17.4 µM); in data set [2], 16 µg/mL (≈ 34.7 µM); in data set [3], 8 µg/mL (≈ 17.4 µM); in data set [4], 128 µg/mL (≈ 278 µM); in data set [5], 128 µg/mL (≈ 278 µM); in [6], 128 µg/mL (≈ 278 µM).
`Cn1cc(CN2CCN(Cc3ccc(Cl)cc3Cl)CC2)c2cc(F)ccc21`: the MIC in [1] worked out at 8 µg/mL (≈ 19.7 µM); in data set [2], 8 µg/mL (≈ 19.7 µM); in [3], 8 µg/mL (≈ 19.7 µM); in [4], 32 µg/mL (≈ 78.8 µM); in data set [5], 32 µg/mL (≈ 78.8 µM); in data set [6], 32 µg/mL (≈ 78.8 µM).
`FC(F)(F)c1ccc(CN2CCN(Cc3c[nH]c4ccc(Cl)cc34)CC2)c(N2CCCC2)c1`: the MIC in [1] turned out to be 4 µg/mL (≈ 8.39 µM); in data set [2], 4 µg/mL (≈ 8.39 µM); in [3] it was 4 µg/mL (≈ 8.39 µM); in data set [4], 16 µg/mL (≈ 33.5 µM); in data set [5], 8 µg/mL (≈ 16.8 µM); in data set [6], 8 µg/mL (≈ 16.8 µM). The figures for the MBC in data set [7], in data set [8] and in data set [9] were 8 µg/mL (≈ 16.8 µM), 8 µg/mL (≈ 16.8 µM) and 32 µg/mL (≈ 67.1 µM), respectively. In addition, the result in data set [10] was Active. The figures for the PAE in data set [11] and in [12] were 0.36 h and 0.61 h, respectively. Moreover, the Activity entry in [13] and in [14] was “Non-Toxic” each time.
Regarding `Cn1cc(CN2CCN(Cc3ccc(C(F)(F)F)cc3N3CCCC3)CC2)c2cc([N+](=O)[O-])ccc21`, the MIC in data set [1], in [2], in [3], in [4], in data set [5] and in [6] was 128 µg/mL (≈ 255 µM) each time.
As to `Cn1cc(CN2CCN(Cc3ccc(Cl)cc3Cl)CC2)c2cc([N+](=O)[O-])ccc21`, the MIC came to 8 µg/mL (≈ 18.5 µM) in data set [1]; 8 µg/mL (≈ 18.5 µM) in [2]; 8 µg/mL (≈ 18.5 µM) in [3]; 64 µg/mL (≈ 148 µM) in data set [4]; 64 µg/mL (≈ 148 µM) in data set [5]; 32 µg/mL (≈ 73.8 µM) in data set [6].
